According to paper PMC9391280, “A High-Throughput Fluorescent Turn-On Assay for Inhibitors of DHHC Family Proteins” (ACS Chemical Biology, 2022):
Like-named read-outs stand apart in the source and are kept apart here.

Assays:
zDHHC3 [1] = target: T1, zDHHC3 (Homo sapiens, UniProt Q9NYG2); assay: PTP fluorogenic assay, single concentration […]; format: biochemical
T1 sequence (Q9NYG2 1-299): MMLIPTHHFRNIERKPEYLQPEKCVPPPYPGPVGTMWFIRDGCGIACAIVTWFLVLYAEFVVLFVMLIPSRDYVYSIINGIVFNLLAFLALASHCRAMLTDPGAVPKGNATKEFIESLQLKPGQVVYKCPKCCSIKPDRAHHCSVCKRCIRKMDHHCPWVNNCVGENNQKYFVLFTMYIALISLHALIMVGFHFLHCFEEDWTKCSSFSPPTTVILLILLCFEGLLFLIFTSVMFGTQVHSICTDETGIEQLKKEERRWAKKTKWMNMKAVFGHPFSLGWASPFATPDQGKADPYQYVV

zDHHC2 [2] = target: T2, zDHHC2 (Homo sapiens, UniProt Q9UIJ5); assay: PTP fluorogenic assay, single concentration […]; format: biochemical
T2 sequence (Q9UIJ5 1-367): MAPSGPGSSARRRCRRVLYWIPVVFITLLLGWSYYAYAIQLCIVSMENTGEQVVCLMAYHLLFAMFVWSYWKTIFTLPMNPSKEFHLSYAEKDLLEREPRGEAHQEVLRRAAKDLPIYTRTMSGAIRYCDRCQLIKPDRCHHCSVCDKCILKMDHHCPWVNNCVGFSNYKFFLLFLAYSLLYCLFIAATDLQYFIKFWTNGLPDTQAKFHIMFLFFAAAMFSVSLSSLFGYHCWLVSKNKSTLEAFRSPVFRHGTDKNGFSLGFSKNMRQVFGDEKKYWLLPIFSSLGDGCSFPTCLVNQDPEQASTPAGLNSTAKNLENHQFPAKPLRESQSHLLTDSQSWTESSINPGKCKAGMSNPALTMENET

zDHHC20 = target: T3, zDHHC20 (Homo sapiens, UniProt Q5W0Z9); assay: PTP fluorogenic turn-on assay with purified zDHHC20; format: biochemical
T3 sequence (Q5W0Z9 1-365): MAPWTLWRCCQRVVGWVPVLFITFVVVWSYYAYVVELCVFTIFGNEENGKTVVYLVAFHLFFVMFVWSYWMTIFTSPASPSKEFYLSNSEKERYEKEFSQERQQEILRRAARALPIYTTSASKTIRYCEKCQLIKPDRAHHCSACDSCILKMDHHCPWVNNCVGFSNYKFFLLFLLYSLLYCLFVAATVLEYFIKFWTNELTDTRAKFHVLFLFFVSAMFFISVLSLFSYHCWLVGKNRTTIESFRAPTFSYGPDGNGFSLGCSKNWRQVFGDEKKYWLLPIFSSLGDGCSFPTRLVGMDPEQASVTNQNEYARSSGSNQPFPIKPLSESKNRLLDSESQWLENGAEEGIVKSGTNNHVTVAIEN

zDHHC2 [3] = target: T2, zDHHC2; assay: fluorogenic probe uncaging by purified enzyme ([…] probe); format: biochemical
zDHHC3 [4] = target: T1, zDHHC3; assay: as above; format: biochemical
purified protein = substrate: CCCCCCCCCCCCCCCC(=O)SCCN(C)C(=O)Oc1ccc2c(c1)Oc1cc(N3CCN(C(=O)CCCC(=O)O)CC3)ccc1C21OC(=O)c2ccccc21; assay: purified protein; conditions: palmitoyl-CoA mimetic; turnover depends on the key catalytic cysteine of the DHHC motif

CCCCCCCCCCCCCCC(Br)C(=O)O (stereo not shown) [2BP, 2-Bromopalmitate]
PTP fluorogenic assay, single concentration 20 μM (zDHHC3 [1]): both CMA and 2BP were able to inhibit zDHHC2, zDHHC3, and zDHHC20 | PTP fluorogenic assay, single concentration 20 μM (zDHHC2 [2]): both CMA and 2BP were able to inhibit zDHHC2, zDHHC3, and zDHHC20 | IC50 (zDHHC20): 2020 ± 290 nM

CCCCCCCCCCCCCCCC(=O)SCCN(C)C(=O)Oc1ccc2c(c1)Oc1cc(N3CCN(C(=O)CCN4CCOCC4)CC3)ccc1C21OC(=O)c2ccccc21 (stereo not shown) [PTP-3]
fluorogenic probe uncaging by purified enzyme (4 μM probe) (zDHHC2 [3]): PTP-3, the morpholino compound, was the best substrate for these two DHHCs | fluorogenic probe uncaging by purified enzyme (4 μM probe) (zDHHC3 [4]): PTP-3, the morpholino compound, was the best substrate for these two DHHCs

C=CC(=O)N(CC#N)CCCCCCCCCCCCCC [CMA, cyanomyracrylamide]
IC50 (zDHHC20; read-out: IC50): 463 ± 70 nM

B1: zDHHC20 (Homo sapiens) (protein)
chain: MAPWTLWRCCQRVVGWVPVLFITFVVVWSYYAYVVELCVFTIFGNEENGKTVVYLVAFHLFFVMFVWSYWMTIFTSPASPSKEFYLSNSEKERYEKEFSQERQQEILRRAARALPIYTTSASKTIRYCEKCQLIKPDRAHHCSACDSCILKMDHHCPWVNNCVGFSNYKFFLLFLLYSLLYCLFVAATVLEYFIKFWTNELTDTRAKFHVLFLFFVSAMFFISVLSLFSYHCWLVGKNRTTIESFRAPTFSYGPDGNGFSLGCSKNWRQVFGDEKKYWLLPIFSSLGDGCSFPTRLVGMDPEQASVTNQNEYARSSGSNQPFPIKPLSESKNRLLDSESQWLENGAEEGIVKSGTNNHVTVAIEN
Km (purified protein): 24.3 µM
